Molecules are shown by their SMILES. Structures can show the parent of a compound that is named as a salt.

The test addresses T1, human MAO-B (Homo sapiens, UniProt P27338).
T1 construct: expressed in transfected cells; host or cells: EBNA cells (transient transfection); cell membranes used
T1 sequence (P27338 1-520): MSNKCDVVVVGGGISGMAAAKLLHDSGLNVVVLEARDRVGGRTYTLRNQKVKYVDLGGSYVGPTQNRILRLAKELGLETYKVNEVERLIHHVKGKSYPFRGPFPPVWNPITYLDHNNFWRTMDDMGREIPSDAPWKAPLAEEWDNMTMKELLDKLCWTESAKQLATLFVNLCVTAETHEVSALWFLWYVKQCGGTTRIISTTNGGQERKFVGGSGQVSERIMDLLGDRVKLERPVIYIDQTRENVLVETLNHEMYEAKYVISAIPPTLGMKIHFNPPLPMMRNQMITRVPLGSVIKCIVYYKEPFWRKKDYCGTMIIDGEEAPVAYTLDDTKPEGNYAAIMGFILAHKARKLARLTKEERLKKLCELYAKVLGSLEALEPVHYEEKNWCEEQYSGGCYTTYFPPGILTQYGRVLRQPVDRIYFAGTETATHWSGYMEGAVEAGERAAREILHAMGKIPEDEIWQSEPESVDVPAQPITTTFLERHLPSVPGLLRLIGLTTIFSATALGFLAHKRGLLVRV
The experiment in a line: MAO-B enzymatic activity, spectrophotometric Amplex Red/peroxidase assay on membranes of transfected EBNA cells. It counts as biochemical. The conditions noted are these: membranes preincubated with compound 30 min at 37° C., pH 7.4; substrate tyramine; nine inhibitor concentrations in duplicate. As for the experimental part:
The cDNA's encoding human MAO-A and MAO-B were transiently transfected into EBNA cells using the procedure described by E.-J. Schlaeger and K. Christensen (Transient Gene Expression in Mammalian Cells Grown in Serum-free Suspension Culture; Cytotechnology, 15: 1-13, 1998). After transfection, cells were homogenised by means of a Polytron homogenizer in 20 mM Tris HCl buffer, pH 8.0, containing 0.5 mM EGTA and 0.5 mM phenylmethanesulfonyl fluoride. Cell membranes were obtained by centrifugation at 45,000×g and, after two rinsing step with 20 mM Tris HCl buffer, pH 8.0, containing 0.5 mM EGTA, membranes were eventually re-suspended in the above buffer and aliquots stored at −80° C. until use.
MAO-A and MAO-B enzymatic activity was assayed in 96-well-plates using a spectrophometric assay adapted from the method described by M. Zhou and N. Panchuk-Voloshina (A One-Step Fluorometric Method for the Continuous Measurement of Monoamine Oxidase Activity, Analytical Biochemistry, 253: 169-174, 1997). Briefly, membrane aliquots were incubated in 0.1 M potassium phosphate buffer, pH 7.4, for 30 min at 37° C. with or without various concentrations of the compounds. After this period, the enzymatic reaction was started by the addition of the MAO substrate tyramine together with 1 U/ml horse-radish peroxidase (Roche Biochemicals) and 80 μM N-acetyl-3,7,-dihydroxyphenoxazine (Amplex Red, Molecular Probes). The samples were further incubated for 30 min at 37° C. in a final volume of 200 μl and absorbance was then determine at a wavelength of 570 nm using a SpectraMax plate reader (Molecular Devices). Background (non-specific) absorbance was determined in the presence of 10 μM clorgyline for MAO-A or 10 μM L-deprenyl for MAO-B.
IC50 values were determined from inhibition curves obtained using nine inhibitor concentrations in duplicate, by fitting data to a four parameter logistic equation using a computer program.
With `COC(=O)CC(=O)Nc1ccc(OCc2cccc(F)c2)cc1` [Example 1, N-[4-(3-Fluoro-benzyloxy)-phenyl]-malonamic acid methyl ester], the IC50 turned out to be 0.011 µM.

In the case of `NC(=O)C1(C(=O)Nc2ccc(OCc3cccc(F)c3)cc2)CC1` [Example 2, Cyclopropane-1,1-dicarboxylic acid amide [4-(3-fluoro-benzyloxy)-phenyl]-amide], the half-maximal inhibitory concentration (IC50) was determined as 0.0079 µM.

Turning to `NC(=O)CC(=O)Nc1ccc(OCc2cccc(F)c2)cc1` [Example 3, N-[4-(3-Fluoro-benzyloxy)-phenyl]-malonamide], the IC50 turned out to be 0.0109 µM.

As for `CC(C(N)=O)C(=O)Nc1ccc(OCc2cccc(F)c2)cc1` (stereo not drawn) [Example 6, N-[4-(3-Fluoro-benzyloxy)-phenyl]-2-methyl-malonamide], the half-maximal inhibitory concentration (IC50) came to 0.013 µM.

For `COC(=O)CC(=O)Nc1ccc(OCc2cccc(F)c2)c(F)c1` [Example 8, N-[3-Fluoro-4-(3-fluoro-benzyloxy)-phenyl]-malonamic acid methyl ester], the IC50 worked out at 0.0096 µM.

`NC(=O)CC(=O)Nc1ccc(OCc2cccc(F)c2)c(F)c1` [Example 9, N-[3-Fluoro-4-(3-fluoro-benzyloxy)-phenyl]-malonamide]: the IC50 was determined as 0.0072 µM.

For the compound `COC(=O)CC(=O)Nc1ccc(OCc2ccc(F)cc2)cc1` [Example 10, N-[4-(4-Fluoro-benzyloxy)-phenyl]-malonamic acid methyl ester], the IC50 is 0.0112 µM.

Turning to `NC(=O)CC(=O)Nc1ccc(OCc2ccc(F)cc2)cc1` [Example 11, N-[4-(4-Fluoro-benzyloxy)-phenyl]-malonamide], the concentration for half-maximal inhibition (IC50) came to 0.0075 µM.

As for `COC(=O)CC(=O)Nc1ccc(OCc2cccc(F)c2)cc1F` [Example 14, N-[2-Fluoro-4-(3-fluoro-benzyloxy)-phenyl]-malonamic acid methyl ester], the half-inhibitory concentration (IC50) worked out at 0.009 µM.

Turning to `COC(=O)CC(=O)Nc1ccc(OCc2ccc(F)cc2F)cc1` [Example 25, N-[4-(2,4-Difluoro-benzyloxy)-phenyl]-malonamic acid methyl ester], the IC50 was 0.011 µM.

As to `COC(=O)CC(=O)Nc1ccc(OCc2cc(F)c(F)cc2F)cc1` [Example 27, N-[4-(2,4,5-Trifluoro-benzyloxy)-phenyl]-malonamic acid methyl ester], the half-maximal inhibitory concentration (IC50) was 0.011 µM.

For the compound `NC(=O)CC(=O)Nc1ccc(OCc2ccc(F)cc2F)cc1` [Example 28, N-[4-(2,4-Difluoro-benzyloxy)-phenyl]-malonamide], the IC50 was 0.008 µM.

For the compound `NC(=O)CC(=O)Nc1ccc(OCc2cc(F)c(F)cc2F)cc1` [Example 29, N-[4-(2,4,5-Trifluoro-benzyloxy)-phenyl]-malonamide], the IC50 was determined as 0.008 µM.

Consider `NC(=O)CC(=O)Nc1ccc(OCc2ccc(Cl)cc2)cc1` [Example 34, N-[4-(4-Chloro-benzyloxy)-phenyl]-malonamide], for which the IC50 was 0.018 µM.

In the case of `NC(=O)CC(=O)Nc1ccc(OCc2cccc(F)c2)cc1O` [Example 38, N-[4-(3-Fluoro-benzyloxy)-2-hydroxy-phenyl]-malonamide], the IC50 was 0.016 µM.

On to `COC(=O)CC(=O)Nc1ccc(OCc2ccc(F)cc2)cc1F` [Example 39, N-[2-Fluoro-4-(4-fluoro-benzyloxy)-phenyl]-malonamic acid methyl ester], for which the 50% inhibitory concentration (IC50) amounted to 0.005 µM.

Consider `NC(=O)CC(=O)Nc1ccc(OCc2ccc(F)cc2)cc1F` [Example 40, N-[2-Fluoro-4-(4-fluoro-benzyloxy)-phenyl]-malonamide], for which the concentration for half-maximal inhibition (IC50) amounted to 0.015 µM.

Regarding `COC(=O)CC(=O)Nc1ccc(OCc2cc(C(F)(F)F)cc(C(F)(F)F)c2)cc1F` [Example 41, N-[4-(3,5-Bis-trifluoromethyl-benzyloxy)-2-fluoro-phenyl]-malonamic acid methyl ester], the half-inhibitory concentration (IC50) was 0.013 µM.

With `NC(=O)CC(=O)Nc1ccc(OCc2ccc(C(F)(F)F)cc2)cc1F` [Example 44, N-[2-Fluoro-4-(4-trifluoromethyl-benzyloxy)-phenyl]-malonamide], the IC50 is 0.009 µM.

As for `COC(=O)CC(=O)Nc1ccc(OCc2cccc(F)c2)c(C)c1` [Example 47, N-[4-(3-Fluoro-benzyloxy)-3-methyl-phenyl]-malonamic acid methyl ester], the IC50 came to 0.014 µM.

On to `Cc1cc(NC(=O)CC(N)=O)ccc1OCc1cccc(F)c1` [Example 48, N-[4-(3-Fluoro-benzyloxy)-3-methyl-phenyl]-malonamide], for which the IC50 was 0.019 µM.

For the compound `COC(=O)CC(=O)Nc1ccc(OCc2cccc(F)c2)c(Cl)c1` [Example 49, N-[3-Chloro-4-(3-fluoro-benzyloxy)-phenyl]-malonamic acid methyl ester], the IC50 was determined as 0.01 µM.

Take `NC(=O)CC(=O)Nc1ccc(OCc2cccc(F)c2)c(Cl)c1` [Example 50, N-[3-Chloro-4-(3-fluoro-benzyloxy)-phenyl]-malonamide]: the IC50 worked out at 0.006 µM.

Consider `COC(=O)CC(=O)Nc1ccc(C=Cc2ccc(F)cc2)cc1` [Example 56, N-{4-[2-(4-Fluoro-phenyl)-vinyl]-phenyl}-malonamic acid methyl ester], for which the 50% inhibitory concentration (IC50) was determined as 0.01 µM.

For the compound `NC(=O)CC(=O)Nc1ccc(C=Cc2ccc(F)cc2)cc1` [Example 57, N-{4-[2-(4-Fluoro-phenyl)-vinyl]-phenyl}-malonamide], the IC50 was determined as 0.018 µM.

For the compound `NCC(=O)Nc1ccc(OCc2ccc(F)cc2)cc1F` [Example 66, 2-Amino-N-[2-fluoro-4-(4-fluoro-benzyloxy)-phenyl]-acetamide (1:1) hydrochloride], the IC50 is 0.016 µM.

For `CC(=O)NCC(=O)Nc1ccc(OCc2ccc(F)cc2)cc1F` [Example 70, 2-Acetylamino-N-[2-fluoro-4-(4-fluoro-benzyloxy)-phenyl]-acetamide], the IC50 came out at 0.011 µM.

Take `O=CNCC(=O)Nc1ccc(OCc2ccc(F)cc2)cc1F` [Example 72, N-[2-Fluoro-4-(4-fluoro-benzyloxy)-phenyl]-2-formylamino-acetamide]: the IC50 is 0.007 µM.

`CC(=O)NCC(=O)Nc1ccc(OCc2cccc(F)c2)cc1F` [Example 75, 2-Acetylamino-N-[2-fluoro-4-(3-fluoro-benzyloxy)-phenyl]-acetamide]: the 50% inhibitory concentration (IC50) came out at 0.013 µM.

As to `O=CNCC(=O)Nc1ccc(OCc2cccc(F)c2)cc1F` [Example 76, N-[2-Fluoro-4-(3-fluoro-benzyloxy)-phenyl]-2-formylamino-acetamide], the IC50 was 0.016 µM.

Usually IC50 stands for the concentration that inhibits the measured activity by half.
